Consider two compounds from patent US20260026501A1, “AGROCHEMICAL COMPOSITION OF SDHI FUNGICIDES” (ADAMA MAKHTESHIM LTD., priority 2022, published 2026).

This data set in a line: Concentration of the actives by HPLC after storage (storage stability). The format is physicochemical. The method, then:
The assay of the two Ai's was checked by HPLC Method.
The analytical method included: • 1. Preparation of standard solution. • 2. Sample solution preparation: 200 mg sample was measured in triplicates into 50 ml volumetric flask. • 3. Acetonitrile was added. • 4. Injection of the standard and sample solutions in room temperature.
The concentration was calculated by: […]
The samples were checked for assay after 11 days and 14 days at room temperature and at 54° C. The AI % should not decrease more than 5% after the accelerated stability at 54° C.
The samples were checked for assay after 11 days and 14 days at room temperature and at 54° C.
The AI % should not decrease more than 5% after the accelerated stability at 54° C.

The mark [1] stands for this setting: 11 days after EC preparation (54° C.).
The mark [2] stands for this setting: 11 days after EC preparation (r.t).
[3] abbreviates: 14 days after EC preparation (54° C.).
[4] abbreviates: 14 days after EC preparation (r.t).

SMILES strings stand for the structures.

Take `OC(Cc1ccccc1Cl)(Cn1nc[nH]c1=S)C1(Cl)CC1` (racemic) [Prothioconazole, 2-[(2RS)-2-(1-chlorocyclopropyl)-3-(2-chlorophenyl)-2-hydroxypropyl]-2H-1,2,4-triazole-3(4H)-thione]: the “Concentration of the active in formulation A” value by setting is: under setting [1], 14.9 g/L; under setting [2], 15.1 g/L; under setting [3], 14.7 g/L; under setting [4], 14.8 g/L; (after EC preparation) 15.2 g/L. The “Concentration of the active in formulation B” value reads like this: (after 14 days (54° C.)) 14.7 g/L; (after 14 days (r.t)) 14.5 g/L; (after EC preparation) 15.3 g/L.
`Cn1cc(C(=O)Nc2ccccc2-c2cc(F)c(F)c(F)c2)c(C(F)F)n1` [Fluxapyroxad, 3-(difluoromethyl)-1-methyl-N-(3′,4′,5′-trifluorobiphenyl-2-yl)pyrazole-4-carboxamide]: the “Concentration of the active in formulation A” value by setting is: under setting [1], 7.5 g/L; under setting [2], 7.5 g/L; under setting [3], 7.5 g/L; under setting [4], 7.4 g/L; (after EC preparation) 7.5 g/L. In addition, the “Concentration of the active in formulation B” value was 9 g/L (after 14 days (54° C.)), 8.8 g/L (after 14 days (r.t)) and 8.9 g/L (after EC preparation).
